{
  "source": "paper PMC7281072",
  "about": "(Cancers, 2020)",
  "key": {"[1]": {"system": "SKOV-3 human ovarian adenocarcinoma xenograft", "parameters": "species or system CB17 SCID mice", "conditions": "mouse, in vivo"}, "AKT1,2 phosphorylation": {"system": "AKT1,2 phosphorylation", "assay": "AKT phosphorylation ELISA, UWB1.289 cells", "type": "cell-based, human", "conditions": "for Vmax ± SE, pAKT 1/2 inhibition: Michaelis Menten model; for IC50: Homo sapiens, read-out: IC50, pAKT 1/2 inhibition"}, "[2]": {"system": "UWB1.289 cancer cell line"}, "OVCAR-5 cancer cell line [3]": {"system": "OVCAR-5 cancer cell line", "assay": "cells", "conditions": "Homo sapiens, OVCAR-5, 48 h"}, "ERK1,2 phosphorylation [4]": {"system": "ERK1,2 phosphorylation", "assay": "ERK1/2 phosphorylation ELISA, SK-OV-3 cells", "type": "cell-based, human", "conditions": "for Vmax ± SE, pERK 1/2 inhibition: Michaelis Menten model; for IC50: Homo sapiens, read-out: IC50, pERK 1/2 inhibition"}, "OVCAR-3 cancer cell line": {"system": "OVCAR-3 cancer cell line", "assay": "cells", "conditions": "Homo sapiens, OVCAR-3, 48 h"}, "pERK1,2 [5]": {"system": "pERK1,2", "assay": "Western immunoblotting densitometry, pERK1,2, SKOV-3 cells", "type": "cell-based, human", "conditions": "25 μM; for ratio [pERK1+pERK2]/[GAPDH] band intensity: SKOV-3 cells; for ratio [pERK1+pERK2]/[GAPDH] band intensity, single blot (panel A): panel A lower set, cell line not given"}, "OVCAR-5 cancer cell line [6]": {"system": "OVCAR-5 cancer cell line"}, "pAKT": {"system": "pAKT", "assay": "Western immunoblotting densitometry, pAKT, OVCAR-3 cells", "type": "cell-based, human", "conditions": "25 μM; for ratio [pAKT]/[GAPDH] band intensity: OVCAR-3 cells; for ratio [pAKT]/[GAPDH] band intensity, single blot (panel A): panel A upper set, cell line not given, control ratio 1.21"}, "pERK1,2 [7]": {"system": "pERK1,2", "assay": "Western immunoblotting densitometry, pERK1,2, OVCAR-3 cells", "type": "cell-based, human", "conditions": "25 μM; for ratio [pERK1+pERK2]/[GAPDH] band intensity: OVCAR-3 cells; for ratio [pERK1+pERK2]/[GAPDH] band intensity, single blot (panel A): panel A upper set, cell line not given"}, "ERK1,2 phosphorylation [8]": {"system": "ERK1,2 phosphorylation", "assay": "ERK1/2 phosphorylation ELISA, UWB1.289+BRCA1 cells", "type": "cell-based, human", "conditions": "for Vmax ± SE, pERK 1/2 inhibition: Michaelis Menten model; for IC50: Homo sapiens, read-out: IC50, pERK 1/2 inhibition"}, "[9]": {"conditions": "read-out: GI50 (50% Growth Inhibition)"}, "[10]": {"conditions": "read-out: IC50 (cytotoxic effect)"}},
  "note": "Read-outs that look alike come from different tables or passages of the source.",
  "data": [
    {"molecule": "C[C@]12CC[C@@H]3c4ccc(OC(=O)CCOc5ccc(N(CCCl)CCCl)cc5)cc4CC[C@H]3[C@@H]1CCC(=O)N2", "note": "[ENGA-L08E, 12a-methyl-2-oxo-1,2,3,4,4a,4b,5,6,10b,11,12,12a-dodecahydronaphtho[2,1-f]quinolin-8-yl 3-(4-(bis (2-chloroethyl)amino)phenoxy) propanoate]", "values": [
      {"measurement": "Progression Free Survival (PFS)", "setting": "[1]", "result": 13, "unit": "days"},
      {"measurement": "Response Rate (RR)", "setting": "[1]", "result": 100, "unit": "%"},
      {"measurement": "Cures (mice alive for 120 days after tumor inoculation)", "setting": "[1]; ip", "result": "2/5"},
      {"measurement": "MST (mean survival time)", "setting": "[1]; ip", "result": "76.5 ± 3.9", "unit": "p < 0.01 Days"},
      {"measurement": "T/C% (mean survival time of treated versus saline controls)", "setting": "[1]; ip", "result": 187.9, "unit": "%"},
      {"measurement": "TI% (Tumor Inhibition)", "setting": "[1]; ip", "result": 76.4, "unit": "%"},
      {"measurement": "size of the primary tumor", "setting": "[1]; ip", "result": "390 ± 21.4", "unit": "mm^3"},
      {"measurement": "Vmax ± SE, pAKT 1/2 inhibition", "setting": "AKT1,2 phosphorylation; 15 min", "result": "63.02 ± 1.33"},
      {"measurement": "Vmax ± SE, pAKT 1/2 inhibition", "setting": "AKT1,2 phosphorylation; 30 min", "result": "68.23 ± 0.99"},
      {"measurement": "Vmax ± SE, pAKT 1/2 inhibition", "setting": "AKT1,2 phosphorylation; 60 min", "result": "70.28 ± 2.75"},
      {"measurement": "IC50", "setting": "AKT1,2 phosphorylation; UWB1289, 0.25 h, 15 min", "result": 14.1, "unit": "µM"},
      {"measurement": "IC50", "setting": "AKT1,2 phosphorylation; UWB1289, 0.5 h, 30 min", "result": 8.24, "unit": "µM"},
      {"measurement": "IC50", "setting": "AKT1,2 phosphorylation; UWB1289, 1 h, 60 min", "result": 6.6, "unit": "µM"},
      {"measurement": "TGI (Total Growth Inhibition)", "setting": "[2]", "result": "20 ± 1.5", "unit": "μΜ"},
      {"measurement": "GI50", "setting": "OVCAR-5 cancer cell line [3]; [9]", "result": "11 ± 0.6", "unit": "µM"},
      {"measurement": "IC50", "setting": "OVCAR-5 cancer cell line [3]; [10]", "result": "92 ± 8.4", "unit": "µM"},
      {"measurement": "Vmax ± SE, pERK 1/2 inhibition", "setting": "ERK1,2 phosphorylation [4]; 15 min", "result": "45.92 ± 2.07"},
      {"measurement": "Vmax ± SE, pERK 1/2 inhibition", "setting": "ERK1,2 phosphorylation [4]; 30 min", "result": "71.49 ± 0.55"},
      {"measurement": "Vmax ± SE, pERK 1/2 inhibition", "setting": "ERK1,2 phosphorylation [4]; 60 min", "result": "74.32 ± 0.43"},
      {"measurement": "IC50", "setting": "ERK1,2 phosphorylation [4]; 0.25 h, 15 min", "result": "> 50", "unit": "µM"},
      {"measurement": "IC50", "setting": "ERK1,2 phosphorylation [4]; 0.5 h, 30 min", "result": 11.2, "unit": "µM"},
      {"measurement": "IC50", "setting": "ERK1,2 phosphorylation [4]; 1 h, 60 min", "result": 7.67, "unit": "µM"},
      {"measurement": "GI50", "setting": "OVCAR-3 cancer cell line; [9]", "result": "30 ± 2.1", "unit": "µM"},
      {"measurement": "IC50", "setting": "OVCAR-3 cancer cell line; [10]", "result": "56 ± 3.2", "unit": "µM"},
      {"measurement": "ratio [pERK1+pERK2]/[GAPDH] band intensity", "setting": "pERK1,2 [5]; 15min, control ratio 1.70", "result": 1.89},
      {"measurement": "ratio [pERK1+pERK2]/[GAPDH] band intensity", "setting": "pERK1,2 [5]; 30min, control ratio 1.70", "result": 1.61},
      {"measurement": "ratio [pERK1+pERK2]/[GAPDH] band intensity", "setting": "pERK1,2 [5]; 1h, control ratio 1.78", "result": 1.08},
      {"measurement": "ratio [pERK1+pERK2]/[GAPDH] band intensity", "setting": "pERK1,2 [5]; 3h, control ratio 1.74", "result": 0.89},
      {"measurement": "ratio [pERK1+pERK2]/[GAPDH] band intensity", "setting": "pERK1,2 [5]; 12h, control ratio 1.61", "result": 0.85},
      {"measurement": "ratio [pERK1+pERK2]/[GAPDH] band intensity, single blot (panel A)", "setting": "pERK1,2 [5]; 1h, control ratio 1.78", "result": 0.54},
      {"measurement": "ratio [pERK1+pERK2]/[GAPDH] band intensity, single blot (panel A)", "setting": "pERK1,2 [5]; 3h, control ratio 1.78", "result": 0.49},
      {"measurement": "TGI (Total Growth Inhibition)", "setting": "OVCAR-5 cancer cell line [6]", "result": "60 ± 2.7", "unit": "μΜ"},
      {"measurement": "ratio [pAKT]/[GAPDH] band intensity", "setting": "pAKT; 30min, control ratio 1.23", "result": 0.93},
      {"measurement": "ratio [pAKT]/[GAPDH] band intensity", "setting": "pAKT; 1h, control ratio 1.14", "result": 0.60},
      {"measurement": "ratio [pAKT]/[GAPDH] band intensity", "setting": "pAKT; 3h, control ratio 1.27", "result": 0.52},
      {"measurement": "ratio [pAKT]/[GAPDH] band intensity", "setting": "pAKT; 6h, control ratio 1.26", "result": 0.47},
      {"measurement": "ratio [pAKT]/[GAPDH] band intensity", "setting": "pAKT; 12h, control ratio 1.18", "result": 0.48},
      {"measurement": "ratio [pAKT]/[GAPDH] band intensity", "setting": "pAKT; 24h, control ratio 1.29", "result": 0.54},
      {"measurement": "ratio [pAKT]/[GAPDH] band intensity, single blot (panel A)", "setting": "pAKT; 1h", "result": 0.40},
      {"measurement": "ratio [pAKT]/[GAPDH] band intensity, single blot (panel A)", "setting": "pAKT; 3h", "result": 0.34},
      {"measurement": "ratio [pERK1+pERK2]/[GAPDH] band intensity", "setting": "pERK1,2 [7]; 30min, control ratio 1.71", "result": 1.01},
      {"measurement": "ratio [pERK1+pERK2]/[GAPDH] band intensity", "setting": "pERK1,2 [7]; 1h, control ratio 1.65", "result": 0.94},
      {"measurement": "ratio [pERK1+pERK2]/[GAPDH] band intensity", "setting": "pERK1,2 [7]; 3h, control ratio 1.99", "result": 0.83},
      {"measurement": "ratio [pERK1+pERK2]/[GAPDH] band intensity", "setting": "pERK1,2 [7]; 6h, control ratio 1.85", "result": 0.76},
      {"measurement": "ratio [pERK1+pERK2]/[GAPDH] band intensity", "setting": "pERK1,2 [7]; 12h, control ratio 1.82", "result": 0.76},
      {"measurement": "ratio [pERK1+pERK2]/[GAPDH] band intensity", "setting": "pERK1,2 [7]; 24h, control ratio 1.92", "result": 0.84},
      {"measurement": "ratio [pERK1+pERK2]/[GAPDH] band intensity, single blot (panel A)", "setting": "pERK1,2 [7]; 1h, control ratio 1.85", "result": 0.51},
      {"measurement": "ratio [pERK1+pERK2]/[GAPDH] band intensity, single blot (panel A)", "setting": "pERK1,2 [7]; 3h, control ratio 1.85", "result": 0.28},
      {"measurement": "Vmax ± SE, pERK 1/2 inhibition", "setting": "ERK1,2 phosphorylation [8]; 15 min", "result": "56.97 ± 0.61"},
      {"measurement": "Vmax ± SE, pERK 1/2 inhibition", "setting": "ERK1,2 phosphorylation [8]; 30 min", "result": "66.56 ± 1.99"},
      {"measurement": "Vmax ± SE, pERK 1/2 inhibition", "setting": "ERK1,2 phosphorylation [8]; 60 min", "result": "71.72 ± 1.86"},
      {"measurement": "IC50", "setting": "ERK1,2 phosphorylation [8]; 0.25 h, 15 min", "result": 25, "unit": "µM"},
      {"measurement": "IC50", "setting": "ERK1,2 phosphorylation [8]; 0.5 h, 30 min", "result": 10.7, "unit": "µM"},
      {"measurement": "IC50", "setting": "ERK1,2 phosphorylation [8]; 1 h, 60 min", "result": 8.56, "unit": "µM"}
    ]}
  ]
}
